Data from ChEMBL document CHEMBL1134220, “The synthesis of beta-peptides containing guanidino groups” (Bioorg Med Chem Lett, 2001).

Assay: pKa was determined
Format: physicochemical

With `N=C(N)N` [GUANIDINE] the pKa was 13.5.
